This assay addresses human indolethylamine-N-methyltransferase (hINMT) (Homo sapiens, UniProt O95050). The assay can be described thus: radiometric […]SAM methyltransferase assay, pure hINMT. The class given is biochemical.

Each structure is given as a SMILES string.

Sequence of human indolethylamine-N-methyltransferase (hINMT) (O95050 whole entry): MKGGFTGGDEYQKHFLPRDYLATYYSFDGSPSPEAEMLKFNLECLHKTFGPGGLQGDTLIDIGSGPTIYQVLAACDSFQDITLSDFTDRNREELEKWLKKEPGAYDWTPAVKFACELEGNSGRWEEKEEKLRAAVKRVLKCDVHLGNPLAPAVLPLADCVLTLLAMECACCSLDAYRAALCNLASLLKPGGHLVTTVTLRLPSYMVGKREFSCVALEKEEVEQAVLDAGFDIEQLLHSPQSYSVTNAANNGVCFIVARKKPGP

Consider `CN(C)CCCNCCc1c[nH]c2ccccc12` [PDAT, N-[2-(1H-indol-3-yl)ethyl]-N′,N′-dimethylpropane-1,3-diamine], for which the IC50 (in general, the concentration needed to halve the response being measured) is ~1000 µM.

The record behind these values is paper PMC4025572 (Biochemistry, 2014).
